# In patent US12076307B2, “Compositions for prevention or treatment of acute radiation syndrome and other radiation exposure” (priority 2017, dated 2024):
# Several values for one entry are separate records, joined by “and”; a condition that tells them apart may be missing. Equal entries are not always repeated.
# Experiments:
# [1] = Whole-body autoradiography of rats after single oral [14C]EC-18; assay type: in vivo, rat; conditions: 200 mg/kg oral, fasted
# Description: Male albino rats in fasted conditions were administered a single dose of [^14C]EC-18 (oral dose of 200 mg/kg, vehicle: olive oil). The distribution and levels of radioactivity in the body were observed by whole-body autoradiography performed at 0.25, 1, 8, and 24 hrs after [^14C]EC-18 administration.
# [2] = Plasma radioactivity in rats after single oral or IV [14C]EC-18; assay type: in vivo, rat
# Description: Male SD rats in the fed state were administered a single oral dose of 25, 50, or 100 mg/kg (vehicle: olive oil) or a single IV injection of 10 mg/kg of [^14C]EC-18 (EC-18 with radioactive isotope ^14C attached). Subsequently, the PK parameters were assessed. The concentration of radioactivity in rat plasma was measured by liquid scintillation counting (LSC) method after adding a scintillator (Clear-Sol I, Nacalai Tesque, Inc).
# [3] = Whole blood and lymphatic radioactivity in rats after single oral [14C]EC-18 100 mg/kg; assay type: in vivo, rat; conditions: 100 mg/kg oral, n=3; for Tmax: 100 mg/kg
# Description: Male SD rats in fasted condition were administered a single dose of [^14C]EC-18 (oral dose of 100 mg/kg; vehicle: olive oil), and the radioactive concentration of the EC-18 was measured in whole blood samples at 0.5, 1, 2, 3, 4, 6, and 8 hrs after its administration. In parallel, male rats with a cannula inserted into the intestinal tract were administered a single dose of [^14C]EC-18 (oral dose of 100 mg/kg; vehicle: olive oil) and the concentration of EC-18-related radioactivity was measured in lymphatic fluid collected in conscious rats at 0.5, 1, 2, 3, 4, 6, and 8 hrs after its administration (FIG. 60). Then, the values of PK parameters were calculated using the quantitative data from whole blood and lymphatic fluid samples (Table 20). Following a single oral administration of [14C]EC-18, EC-18 concentration in the lymphatic fluid of rats was 10 to 53 times higher than that in whole blood (FIG. 60).
# [4] = Plasma and lymphatic radioactivity after single oral [14C]EC-18 50 mg/kg in cannulated rats; assay type: in vivo, rat; conditions: 50 mg/kg oral; for Radioactive Concentration in Plasma: n=3
# Description: After inserting a cannula into the intestinal tract of male SD rats, the rats in fed condition were given a single dose of [^14C]EC-18 (oral dose of 50 mg/kg; vehicle: olive oil), and samples were collected after 0.5, 1, 2, 4, 6, and 8 hrs of administration. In parallel, lymphatic fluid samples were collected from conscious rats up to 8 hrs after administration. The radioactive concentrations in rat plasma and lymphatic fluid were measured by LSC after adding a scintillator, and the quantified data are shown in Table 19.
# [5] = Pathway of excretion in rats after single oral [14C]EC-18; assay type: in vivo, rat; conditions: 50 mg/kg oral
# Description: To assess the routes of EC-18 excretion, male rats were administered a single dose of [^14C]EC-18 (oral dose of 50 mg/kg), after which, radioactive concentrations were measured in urine, feces, and exhaled air in the chamber of the animals for 168 hrs, and in the body after the autopsy.
# [6] = system: CXCL8; assay: CXCL8 release in HaCaT cells treated with CM or rhHMGB1; assay type: cell-based, human; conditions: rhHMGB1-treated cells
# Description: An additional experiment was tested for assessing whether EC-18 treatment leads to early termination of the RIPK1/3-MLKL-mediated downstream necroptosis pathway. This was performed by using DAMP-containing conditioned media (CM) harvested from HaCaT cells, irradiated for 48 hrs, and analyzed after 2 or 72 hrs of EC-18 treatment. […] To further confirm that DAMPs in CM contribute to the activation of a necroptosis signaling pathway in a paracrine manner, recombinant human HMGB1 (rhHMGB1) was treated directly to the normal HaCaT cells. The rhHMGB1 elevated the phosphorylation of RIPK1/3 and MLKL after 2 hrs and subsequently released HMGB1 and HSP90 (FIGS. 35C-35D). To evaluate whether EC-18 mitigates the activation of RIPK1/3 and MLKL, 10 or 100 μg/mL of EC-18 was treated before the addition of CM or rhHMGB1. As a result, EC-18 lowered the phosphorylation of RIPK/3 and MLKL in both CM- and rhHMGB1-treated cells after 2 hrs. Release of HMGB1 and Hsp90 was also subsided by EC-18 after 72 hrs of post addition of CM or rhHMGB1 to the cells (FIGS. 35A-35D). TLR4-induced necroptosis signaling pathway caused by DAMP release produces cytokines, such as CXCL8, a chemotactic cytokine for neutrophils. As CXCL8 increases upon tissue damage, it was measured in cells treated with CM or rhHMGB1 as a measure of inflammation. CXCL8 of CM from cells treated with chemo and radiotherapy was used for this evaluation. […] Moreover, rhHMGB1 increased the production of CXCL8, modulated by EC-18.
# [7] = system: Balb/c mice, 6.11 Gy TBI; assay: Structural analog / calorie effect study: EC-18, PLH, olive oil in 6.11 Gy ARS model; assay type: in vivo, mouse; conditions: 250 mg/kg daily
# Description: Similarly, a structural analog efficacy study was conducted to identify the optimally functional molecule in the ARS murine model. The study was performed with the structural analog in which the acetyl group in EC-18 is replaced with a hydroxyl group (yielding palmitic linoleic hydroxyl glycerol, PLH) in 20 Balb/c mice (10 female and 10 male) per group. Mice were irradiated with TBI of 6.11Gy at day 0 and 250 mg/kg of EC-18 or PLH were given daily in-life.
# The purpose of this study was to assess whether extra calories of EC-18 contribute to the enhanced survival in mice after exposure to a whole-body sublethal dose of γ-radiation. The study was performed with the structural analog in which the acetyl group in EC-18 is replaced with a hydroxyl group (yielding PLH) in a total of 100 BALB/c mice ([…]; 20 animals per study group) aged at 11 weeks. Mice were irradiated with TBI of 6.11Gy at day 0 and the same dosage (250 mg/kg) of EC-18, PLH, or olive oil (vehicle control) were given daily in-life.
# [8] = Oral 25 mg/kg, plasma, fed, n=3
# [9] = Oral 50 mg/kg, plasma, fed, n=3
# [10] = Oral 100 mg/kg, plasma, fed, n=3
smiles,measurement,setting,value
CCCCC/C=C\C/C=C\CCCCCCCC(=O)OC(COC(C)=O)COC(=O)CCCCCCCCCCCCCCC (centres unmarked) [[^14C]EC-18],site of highest radioactivity,[1]; 0.25 hr,stomach and small intestine
same,site of highest radioactivity,[1]; 1 hr,stomach and small intestine
same,site of highest radioactivity,[1]; 8 hrs,inner walls of the stomach
same,radioactivity distribution,[1]; 24 hrs,low radioactivity was observed in the liver
same,AUClast,"[2]; IV 10 mg/kg, plasma, fed, n=3",215 ± 11 μg eq · hr/mL
same,Cmax (= C0),"[2]; IV 10 mg/kg, plasma, fed, n=3",81.5 ± 3.4 μg eq/mL
same,t1/2,"[2]; IV 10 mg/kg, plasma, fed, n=3",32.5 ± 1.2 h
same,F,[2]; Oral 25 mg/kg,46%
same,AUClast,[2]; [8],224 ± 30 μg eq · hr/mL
same,Cmax,[2]; [8],7.2 ± 1.4 μg eq/mL
same,Tmax,[2]; [8],7.3 ± 5.0 h
same,t1/2,[2]; [8],32.0 ± 3.1 h
same,F,[2]; Oral 50 mg/kg,49%
same,AUClast,[2]; [9],473 ± 53 μg eq · hr/mL
same,Cmax,[2]; [9],16.6 ± 1.4 μg eq/mL
same,Tmax,[2]; [9],4.7 ± 2.3 h
same,t1/2,[2]; [9],31.4 ± 1.8 h
same,F,[2]; Oral 100 mg/kg,42%
same,AUClast,[2]; [10],830 ± 29 μg eq · hr/mL
same,Cmax,[2]; [10],29.6 ± 2.7 μg eq/mL
same,Tmax,[2]; [10],6.0 ± 3.5 h
same,t1/2,[2]; [10],31.7 ± 3.5 h
same,AUC0-inf,[3]; Lymphatic Fluid,53900 ± 39100 μg eq · hr/mL
same,AUC0-last,[3]; Lymphatic Fluid,20400 ± 600 μg eq · hr/mL
same,Cmax,[3]; Lymphatic Fluid,1210 ± 200 µg/mL
same,t1/2,[3]; Lymphatic Fluid,29.7 ± 28.1 h
same,Tmax,[3]; Lymphatic Fluid,7.0 ± 2.0 h
same,AUC0-inf,"[3]; Whole Blood, fasted",819 ± 130 μg eq · hr/mL
same,AUC0-last,"[3]; Whole Blood, fasted",496 ± 69 μg eq · hr/mL
same,Cmax,"[3]; Whole Blood, fasted",38.8 ± 9.5 µg/mL
same,t1/2,"[3]; Whole Blood, fasted",16.8 ± 1.9 h
same,Tmax,"[3]; Whole Blood, fasted",3.8 ± 2.9 h
same,Radioactive Concentration in Plasma,[4]; 0.5 hr,0.096 ± 0.096 μg eq/mL
same,Radioactive Concentration in Plasma,[4]; 1 hr,0.689 ± 0.796 μg eq/mL
same,Radioactive Concentration in Plasma,[4]; 2 hr,2.09 ± 1.65 μg eq/mL
same,Radioactive Concentration in Plasma,[4]; 4 hr,6.51 ± 2.21 μg eq/mL
same,Radioactive Concentration in Plasma,[4]; 6 hr,10.2 ± 2.7 μg eq/mL
same,radioactive concentration in plasma as share of the administered dose,[4]; 8 h,approximately 28%
same,Radioactive Concentration in Plasma,"[4]; 8 hr, 50 mg/kg",17.5 μg eq/mL and 17.5 ± 4.9 μg eq/mL
same,"Cumulative Radioactive Concentration Relative to the Administered Dose, Cage-Cleaning Water",[5]; 0-24 hr,0.0 ± 0.0%
same,"Cumulative Radioactive Concentration Relative to the Administered Dose, Exhaled Air","[5]; 0-24 hr, 50 mg/kg",71.0 ± 3.2%
same,"Cumulative Radioactive Concentration Relative to the Administered Dose, Feces","[5]; 0-24 hr, 50 mg/kg",3.0 ± 0.5%
same,"Cumulative Radioactive Concentration Relative to the Administered Dose, Total","[5]; 0-24 hr, 50 mg/kg",75.9 ± 3.2%
same,"Cumulative Radioactive Concentration Relative to the Administered Dose, Urine","[5]; 0-24 hr, 50 mg/kg",1.9 ± 0.3%
same,"Cumulative Radioactive Concentration Relative to the Administered Dose, Cage-Cleaning Water",[5]; 0-48 hr,0.1 ± 0.1%
same,"Cumulative Radioactive Concentration Relative to the Administered Dose, Exhaled Air",[5]; 0-48 hr,75.0 ± 3.8%
same,"Cumulative Radioactive Concentration Relative to the Administered Dose, Feces",[5]; 0-48 hr,3.6 ± 0.7%
same,"Cumulative Radioactive Concentration Relative to the Administered Dose, Total",[5]; 0-48 hr,80.7 ± 3.8%
same,"Cumulative Radioactive Concentration Relative to the Administered Dose, Urine",[5]; 0-48 hr,2.1 ± 0.3%
same,"Cumulative Radioactive Concentration Relative to the Administered Dose, Cage-Cleaning Water",[5]; 0-72 hr,0.1 ± 0.0%
same,"Cumulative Radioactive Concentration Relative to the Administered Dose, Exhaled Air","[5]; 0-72 hr, 50 mg/kg",76.7 ± 3.9%
same,"Cumulative Radioactive Concentration Relative to the Administered Dose, Feces","[5]; 0-72 hr, 50 mg/kg",3.8 ± 0.7%
same,"Cumulative Radioactive Concentration Relative to the Administered Dose, Total","[5]; 0-72 hr, 50 mg/kg",82.8 ± 3.9%
same,"Cumulative Radioactive Concentration Relative to the Administered Dose, Urine","[5]; 0-72 hr, 50 mg/kg",2.2 ± 0.3%
same,"Cumulative Radioactive Concentration Relative to the Administered Dose, Cage-Cleaning Water",[5]; 0-96 hr,0.1 ± 0.0%
same,"Cumulative Radioactive Concentration Relative to the Administered Dose, Exhaled Air",[5]; 0-96 hr,77.7 ± 3.9%
same,"Cumulative Radioactive Concentration Relative to the Administered Dose, Feces",[5]; 0-96 hr,3.9 ± 0.7%
same,"Cumulative Radioactive Concentration Relative to the Administered Dose, Total",[5]; 0-96 hr,84.0 ± 3.8%
same,"Cumulative Radioactive Concentration Relative to the Administered Dose, Urine",[5]; 0-96 hr,2.3 ± 0.4%
same,"Cumulative Radioactive Concentration Relative to the Administered Dose, Cage-Cleaning Water",[5]; 0-120 hr,0.1 ± 0.0%
same,"Cumulative Radioactive Concentration Relative to the Administered Dose, Exhaled Air",[5]; 0-120 hr,78.4 ± 3.9%
same,"Cumulative Radioactive Concentration Relative to the Administered Dose, Feces",[5]; 0-120 hr,4.0 ± 0.7%
same,"Cumulative Radioactive Concentration Relative to the Administered Dose, Total",[5]; 0-120 hr,84.8 ± 3.8%
same,"Cumulative Radioactive Concentration Relative to the Administered Dose, Urine",[5]; 0-120 hr,2.3 ± 0.4%
same,"Cumulative Radioactive Concentration Relative to the Administered Dose, Cage-Cleaning Water",[5]; 0-144 hr,0.1 ± 0.0%
same,"Cumulative Radioactive Concentration Relative to the Administered Dose, Exhaled Air",[5]; 0-144 hr,78.9 ± 3.9%
same,"Cumulative Radioactive Concentration Relative to the Administered Dose, Feces",[5]; 0-144 hr,4.1 ± 0.7%
same,"Cumulative Radioactive Concentration Relative to the Administered Dose, Total",[5]; 0-144 hr,85.4 ± 3.8%
same,"Cumulative Radioactive Concentration Relative to the Administered Dose, Urine",[5]; 0-144 hr,2.3 ± 0.4%
same,"Cumulative Radioactive Concentration Relative to the Administered Dose, Cage-Cleaning Water",[5]; 0-168 hr,0.1 ± 0.0%
same,"Cumulative Radioactive Concentration Relative to the Administered Dose, Cadaver","[5]; 0-168 hr, 50 mg/kg",9.8 ± 1.0%
same,"Cumulative Radioactive Concentration Relative to the Administered Dose, Exhaled Air","[5]; 0-168 hr, 50 mg/kg",79.3 ± 3.9%
same,"Cumulative Radioactive Concentration Relative to the Administered Dose, Feces","[5]; 0-168 hr, 50 mg/kg",4.2 ± 0.7%
same,"Cumulative Radioactive Concentration Relative to the Administered Dose, Total","[5]; 0-168 hr, 50 mg/kg",95.7 ± 3.3%
same,"Cumulative Radioactive Concentration Relative to the Administered Dose, Urine","[5]; 0-168 hr, 50 mg/kg",2.3 ± 0.4%
"CC(C)S(=O)(=O)c1ccc2nccc(Nc3ccc4scnc4c3)c2c1 [GSK872, reference compound]",CXCL8 production,[6],significant reduction
"CCCCC/C=C\C/C=C\CCCCCCCC(=O)OC(CO)COC(=O)CCCCCCCCCCCCCCC (centres unmarked) [PLH, palmitic linoleic hydroxyl glycerol, reference compound]",No. of mice that survived/total,[7],8/20
same,Survival,[7],40%
same,"Survival time of decedents, Mean ± SEM",[7],18.8 ± 1.6 days
same,"Survival time of decedents, Median",[7],18 days
same,body weight loss induced by irradiation,[7],aggravated body weight loss
same,survival compared to control group,[7]; 250 mg/kg,no statistically significant difference
"CN1C(=O)C(Cc2c[nH]c3ccccc23)NC1=S (centres unmarked) [Necrostin-1, reference compound]",CXCL8 production,[6],significant reduction
